Experimental data as given in PMC10224994, “Dual synergistic inhibition of COX and LOX by potential chemicals from Indian daily spices investigated through detailed computational studies” (Scientific Reports, 2023).
Like-named read-outs stand apart in the source and are kept apart here.

Tests used:
Assay type in all cases: biochemical
5-LOX enzyme = target: T1, 5-LOX enzyme (Homo sapiens, UniProt P09917); experiment: In vitro 5-LOX inhibition assay (Human Lipoxygenase Inhibitor screening kit); details: mean of three replicates ± SEM
T1 construct: purchased Cayman Chemical
T1 sequence (P09917 1-674): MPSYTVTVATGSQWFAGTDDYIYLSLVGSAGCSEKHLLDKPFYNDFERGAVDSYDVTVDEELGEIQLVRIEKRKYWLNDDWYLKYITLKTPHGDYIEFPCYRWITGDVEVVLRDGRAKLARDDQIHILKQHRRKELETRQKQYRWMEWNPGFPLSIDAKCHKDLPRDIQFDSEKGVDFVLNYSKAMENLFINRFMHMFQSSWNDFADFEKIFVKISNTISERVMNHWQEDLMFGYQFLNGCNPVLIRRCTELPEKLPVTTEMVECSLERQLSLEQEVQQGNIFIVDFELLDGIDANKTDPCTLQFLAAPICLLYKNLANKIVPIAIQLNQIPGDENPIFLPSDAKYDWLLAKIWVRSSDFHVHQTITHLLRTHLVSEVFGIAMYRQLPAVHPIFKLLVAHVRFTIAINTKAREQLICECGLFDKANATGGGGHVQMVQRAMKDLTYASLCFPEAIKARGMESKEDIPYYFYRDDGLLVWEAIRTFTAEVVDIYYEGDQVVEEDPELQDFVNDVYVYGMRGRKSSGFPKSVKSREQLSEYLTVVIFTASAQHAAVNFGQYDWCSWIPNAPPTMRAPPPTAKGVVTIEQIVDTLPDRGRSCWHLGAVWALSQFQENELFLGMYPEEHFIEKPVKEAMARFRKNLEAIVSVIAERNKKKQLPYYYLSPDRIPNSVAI
Protocol: The ability of the test compounds to inhibit the 5-LOX enzyme was evaluated using the Human Lipoxygenase Inhibitor screening assay (EIA) kit (Cayman Chemical). The IC50 values were measured in µM according to the manufacturer’s instructions and reported method[63]–[65]. Data are expressed as IC50 ± SEM for triplicate studies.
(§1) Colorimetric enzyme immunoassay (EIA) was used to assess the inhibitory potential of the test compounds against COX-1, COX-2, and 5-LOX enzymes.

[1] = target: T2, COX-2 (human recombinant) (Homo sapiens, UniProt P35354); experiment: In vitro COX-2 inhibition assay (EIA kit); details: mean of three replicates ± SEM
T2 construct: purchased Cayman Chemical
T2 sequence (P35354 18-604): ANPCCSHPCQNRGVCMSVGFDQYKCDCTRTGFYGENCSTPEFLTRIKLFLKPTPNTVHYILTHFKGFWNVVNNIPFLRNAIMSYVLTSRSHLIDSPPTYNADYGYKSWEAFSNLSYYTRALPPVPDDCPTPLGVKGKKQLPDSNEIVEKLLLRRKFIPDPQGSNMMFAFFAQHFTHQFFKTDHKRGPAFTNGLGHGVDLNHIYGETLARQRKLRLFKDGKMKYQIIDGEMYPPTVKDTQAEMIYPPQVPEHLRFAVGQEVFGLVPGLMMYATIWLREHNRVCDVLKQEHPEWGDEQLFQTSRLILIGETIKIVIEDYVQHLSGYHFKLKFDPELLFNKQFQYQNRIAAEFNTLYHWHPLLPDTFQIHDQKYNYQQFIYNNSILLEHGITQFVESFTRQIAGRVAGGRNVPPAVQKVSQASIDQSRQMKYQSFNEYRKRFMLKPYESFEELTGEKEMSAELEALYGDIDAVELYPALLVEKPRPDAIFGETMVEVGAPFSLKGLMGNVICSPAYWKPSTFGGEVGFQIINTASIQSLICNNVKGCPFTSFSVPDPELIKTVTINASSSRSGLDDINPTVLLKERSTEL
Protocol: (§2) The inhibitory activity was measured and reported as IC50 value (µM). Data are expressed as IC50 ± SEM for triplicate studies.
as §1

COX-1 (ovine) = target: T3, COX-1 (ovine) (Ovis aries, UniProt P05979); experiment: In vitro COX-1 inhibition assay (EIA kit)
T3 construct: purchased Cayman Chemical
T3 sequence (P05979 25-600): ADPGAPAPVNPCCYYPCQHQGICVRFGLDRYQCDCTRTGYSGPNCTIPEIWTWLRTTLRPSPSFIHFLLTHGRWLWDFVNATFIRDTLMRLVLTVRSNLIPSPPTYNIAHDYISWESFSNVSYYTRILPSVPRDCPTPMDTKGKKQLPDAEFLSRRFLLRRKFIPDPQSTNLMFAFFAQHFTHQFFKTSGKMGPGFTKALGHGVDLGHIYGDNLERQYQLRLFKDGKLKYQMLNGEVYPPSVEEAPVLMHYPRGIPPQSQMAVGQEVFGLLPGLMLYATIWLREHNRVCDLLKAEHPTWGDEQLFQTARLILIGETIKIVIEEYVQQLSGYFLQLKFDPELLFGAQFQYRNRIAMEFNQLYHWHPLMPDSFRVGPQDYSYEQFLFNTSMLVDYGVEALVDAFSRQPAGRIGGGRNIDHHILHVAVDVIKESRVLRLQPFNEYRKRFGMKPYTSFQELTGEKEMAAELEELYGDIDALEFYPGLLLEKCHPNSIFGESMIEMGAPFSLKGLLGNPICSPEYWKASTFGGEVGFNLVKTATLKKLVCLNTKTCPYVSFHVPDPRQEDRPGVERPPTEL
Protocol: as §2, §1

IC50 (COX-1 (ovine); mean of three replicates ± SEM, read-out: IC50 data COX-1) [µM]	Compound	IC50 (5-LOX enzyme) [µM]	IC50 [1] [µM]	IC50 (COX-1 (ovine)) [µM]
27.1 ± 0.82	CCCCC[C@H](O)CC(=O)CCc1ccc(O)c(OC)c1 [Gingerol, (S)-5-hydroxy-1-(4-hydroxy-3-methoxyphenyl)decan-3-one]	42.65 ± 0.17	32.82 ± 0.24	–
–	COc1cc(CNC(=O)CCCC/C=C/C(C)C)ccc1O [Capsaicin, (E)-N-(4-hydroxy-3-methoxybenzyl)-8-methylnon-6-enamide]	36.4 ± 0.39	28.3 ± 0.55	24.4 ± 0.62
–	COc1cc(/C=C/C(=O)CC(=O)/C=C/c2ccc(O)c(OC)c2)ccc1O [Curcumin, (1E,6E)-1,7-bis(4-hydroxy-3-methoxyphenyl)hepta-1,6-diene-3,5-dione]	–	–	18.6 ± 0.44
